Source: ChEMBL document CHEMBL1152215, “6-[2-(4-Aryl-1-piperazinyl)ethyl]-2H-1,4-benzoxazin-3(4H)-ones: dual-acting 5-HT1 receptor antagonists and serotonin reuptake inhibitors” (Bioorg Med Chem Lett, 2008)

Tests used:
[1] = target: T1, 5-hydroxytryptamine receptor 1A (Homo sapiens) (UniProt P08908); assay: Intrinsic activity at human 5HT1A receptor expressed in CHO cells by [S35]GTPgammaS binding assay relative to serotonin; type: functional, cell-based
T1 sequence (whole entry): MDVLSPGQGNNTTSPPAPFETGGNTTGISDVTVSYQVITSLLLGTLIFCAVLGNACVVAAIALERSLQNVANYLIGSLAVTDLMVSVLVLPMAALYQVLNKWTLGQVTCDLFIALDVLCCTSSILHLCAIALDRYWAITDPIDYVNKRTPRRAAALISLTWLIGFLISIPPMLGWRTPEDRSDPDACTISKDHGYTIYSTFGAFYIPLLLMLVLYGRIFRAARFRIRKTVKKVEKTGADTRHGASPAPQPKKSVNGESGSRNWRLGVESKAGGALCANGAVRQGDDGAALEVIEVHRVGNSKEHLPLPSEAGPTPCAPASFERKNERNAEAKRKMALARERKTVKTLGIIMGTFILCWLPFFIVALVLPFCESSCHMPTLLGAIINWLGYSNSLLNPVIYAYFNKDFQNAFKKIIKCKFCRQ

[2] = Volume of distribution in rat; type: ADME, organism-based; conditions: in vivo, read-out: Vdss
[3] = tested on: Liver microsomes; assay: Metabolic stability in human liver microsomes assessed as intrinsic clearance; type: ADME, Microsome
[4] = Blood Clearance in rat at 0.5 mg/kg, iv and 1 mg/kg, po; type: ADME, organism-based; conditions: whole blood
[5] = tested on: Liver microsomes; assay: Metabolic stability in rat liver microsomes assessed as intrinsic clearance; type: ADME, Microsome
[6] = Oral bioavailability in rat at 1 mg/kg; type: ADME, organism-based; conditions: in vivo
[7] = Half life in rat; type: ADME, organism-based; conditions: in vivo
[8] = target: T2, 5-hydroxytryptamine receptor 1B (Homo sapiens, UniProt P28222); assay: Intrinsic activity at human 5HT1B receptor expressed in CHO cells by [S35]GTPgammaS binding assay relative to serotonin; type: functional, cell-based
[9] = target: T2, 5-hydroxytryptamine receptor 1B; assay: Displacement of [3H]5HT from human 5HT1B receptor expressed in CHO cells; type: cell-based
[10] = target: Sodium-dependent serotonin transporter (Homo sapiens, UniProt P31645); assay: Displacement of [3H]citalopram from human SerT expressed pig LLCPK cells; type: cell-based
[11] = target: T3, 5-hydroxytryptamine receptor 1D (Homo sapiens, UniProt P28221); assay: Displacement of [3H]5HT from human 5HT1D receptor expressed in CHO cells; type: cell-based
[12] = target: T4, 5-hydroxytryptamine receptor 1A (Homo sapiens, UniProt P08908); assay: Displacement of [3H]WAY-100635 from human 5HT1A receptor expressed in CHO cells; type: cell-based
T4 sequence (P08908 whole entry): T1 sequence (whole entry)

[13] = target: T3, 5-hydroxytryptamine receptor 1D; assay: Intrinsic activity at human 5HT1D receptor expressed in CHO cells by [S35]GTPgammaS binding assay relative to serotonin; type: functional, cell-based
[14] = Ratio of drug level in brain to blood in rat; type: ADME, organism-based; conditions: brain / whole blood

Sodium-dependent serotonin transporter, sequence (P31645 whole entry): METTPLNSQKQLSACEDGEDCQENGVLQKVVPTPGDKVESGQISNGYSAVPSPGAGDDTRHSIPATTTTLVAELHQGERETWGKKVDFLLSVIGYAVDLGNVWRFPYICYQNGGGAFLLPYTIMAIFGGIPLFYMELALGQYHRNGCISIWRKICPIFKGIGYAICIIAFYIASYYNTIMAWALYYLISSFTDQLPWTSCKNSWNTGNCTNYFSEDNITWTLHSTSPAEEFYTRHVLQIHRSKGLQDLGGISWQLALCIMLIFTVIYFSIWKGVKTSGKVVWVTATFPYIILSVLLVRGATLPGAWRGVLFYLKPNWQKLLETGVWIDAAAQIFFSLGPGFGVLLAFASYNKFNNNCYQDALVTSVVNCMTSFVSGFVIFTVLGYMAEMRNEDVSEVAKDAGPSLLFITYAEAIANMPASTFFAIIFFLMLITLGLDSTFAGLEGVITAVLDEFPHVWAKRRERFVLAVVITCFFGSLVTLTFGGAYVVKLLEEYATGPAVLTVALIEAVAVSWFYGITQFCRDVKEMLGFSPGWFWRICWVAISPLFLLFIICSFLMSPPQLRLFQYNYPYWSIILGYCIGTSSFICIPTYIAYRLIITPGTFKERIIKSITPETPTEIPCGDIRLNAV
T2 sequence (P28222 whole entry): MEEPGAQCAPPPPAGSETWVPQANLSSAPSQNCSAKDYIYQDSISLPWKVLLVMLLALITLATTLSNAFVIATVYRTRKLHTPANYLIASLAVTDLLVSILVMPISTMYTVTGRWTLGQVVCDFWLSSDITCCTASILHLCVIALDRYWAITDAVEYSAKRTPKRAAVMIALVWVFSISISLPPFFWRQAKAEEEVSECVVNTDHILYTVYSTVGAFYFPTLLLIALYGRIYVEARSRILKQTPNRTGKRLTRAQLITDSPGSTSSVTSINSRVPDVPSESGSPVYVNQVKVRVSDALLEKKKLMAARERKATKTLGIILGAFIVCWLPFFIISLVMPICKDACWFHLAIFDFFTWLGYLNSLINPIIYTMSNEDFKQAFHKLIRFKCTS
T3 sequence (P28221 whole entry): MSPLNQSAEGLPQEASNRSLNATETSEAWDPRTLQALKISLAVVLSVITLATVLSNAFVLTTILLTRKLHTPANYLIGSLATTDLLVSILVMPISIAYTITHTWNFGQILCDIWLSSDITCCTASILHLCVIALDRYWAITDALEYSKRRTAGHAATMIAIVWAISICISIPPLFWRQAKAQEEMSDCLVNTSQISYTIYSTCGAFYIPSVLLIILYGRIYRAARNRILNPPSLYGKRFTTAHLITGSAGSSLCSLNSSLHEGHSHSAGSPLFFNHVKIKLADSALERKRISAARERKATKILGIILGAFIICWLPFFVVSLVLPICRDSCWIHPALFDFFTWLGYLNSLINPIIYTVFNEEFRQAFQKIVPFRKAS

SMILES | Intrinsic activity [1] | Vd [2] [L/kg] | CL [3] [mL/min/g] | clearance [4] [mL/min/kg] | CL [5] [mL/min/g] | bioavailability [6] [%] | half-life [7] [h] | Intrinsic activity [8] | Ki [9] [nM] | Ki [10] [nM] | Ki [11] [nM] | Ki [12] [nM] | Intrinsic activity [13] | Kp [14]
Cc1ccc2c(N3CCN(CCc4ccc5c(c4)N(C)C(=O)CO5)CC3)cccc2n1 | 0.3 | 2.7 | 1.1 | 8 | 0.8 | 59 | 4.4 | 0.2 | – | – | – | – | – | –
Cc1ccc2c(N3CCN(CCc4cc(F)c5c(c4)NC(=O)CO5)CC3)cccc2n1 | 0 | – | – | – | – | – | – | 0.3 | 1 | 1.26 | 0.2 | 1.26 | 0 | –
Cc1ccc2c(N3CCN(CCc4ccc5c(c4)NC(=O)CO5)CC3)cccc2n1 | 0.2 | 2 | < 0.5 | 5 | 1.3 | 68 | 5.1 | 0.1 | – | – | – | – | – | –
Cc1ccc2c(N3CCN(CCc4ccc5c(c4)NC(=O)CO5)[C@@H](C)C3)cccc2n1 | 0 | – | – | – | – | – | – | 0 | 1.26 | 0.398 | 1.58 | 3.16 | 0 | –
Cc1ccc2c(N3C[C@H]4C[C@@H]3CN4CCc3ccc4c(c3)NC(=O)CO4)cccc2n1 | 0.8 | – | – | – | – | – | – | 0.2 | 0.794 | 3.98 | 25.1 | 126 | 0 | –
Cc1ccc2c(N3CCN(CCc4ccc5c(c4)NC(=O)CO5)CC3)ccc(F)c2n1 | 0.2 | – | – | – | – | – | – | 0 | 126 | 3.98 | 0.316 | 0.251 | 0 | –
Cc1ccc2c(N3CCN(CCc4cc5c(cc4F)OCC(=O)N5)CC3)cccc2n1 | 0.2 | – | – | – | – | – | – | 0.1 | 1.58 | 0.794 | 0.251 | 0.251 | 0 | –
O=C1COc2ccc(CCN3CCN(c4nccc5ccccc45)CC3)cc2N1 | 1 | – | – | – | – | – | – | 0.5 | 0.794 | 0.794 | 0.251 | 100 | 0.4 | –
O=C1COc2ccc(CCN3CCN(c4cccc5cccnc45)CC3)cc2N1 | 0.8 | – | – | – | – | – | – | 0.7 | 31.6 | 10 | 0.251 | 1.58 | 0.7 | –
Cc1ccc2c(N3CCN(CCc4ccc5c(c4)NC(=O)CO5)CC3C)cccc2n1 (centres undefined) | 0.2 | – | – | – | – | – | – | 0.1 | 2 | 10 | 0.316 | 0.794 | 0 | –
CCN1C(=O)COc2ccc(CCN3CCN(c4cccc5nc(C)ccc45)CC3)cc21 | 0 | – | – | – | – | – | – | 0 | 0.794 | 79.4 | 0.398 | 0.501 | 0 | –
Cc1ccc2c(N3CCN(CCc4ccc5c(c4)NC(=O)CO5)CC3)cc(F)cc2n1 | 0 | – | – | – | – | – | – | 0 | 2.51 | 0.794 | 0.2 | 2.51 | 0 | –
Cc1ccc2c(N3CCN(CCc4ccc5c(c4)NC(=O)CO5)[C@H](C)C3)cccc2n1 | 0 | – | – | – | – | – | – | 0 | 7.94 | 0.794 | 0.501 | 1.58 | 0 | –

Now from value to compound:

Intrinsic activity [1] | Vd [2] [L/kg] | CL [3] [mL/min/g] | clearance [4] [mL/min/kg] | CL [5] [mL/min/g] | bioavailability [6] [%] | half-life [7] [h] | Intrinsic activity [8] | Ki [9] [nM] | Ki [10] [nM] | Ki [11] [nM] | Ki [12] [nM] | Intrinsic activity [13] | Kp [14] | SMILES
0.7 | – | – | – | – | – | – | 0.3 | 0.501 | 1.58 | 0.2 | 3.98 | 0 | – | Cc1ccc2c(N3CCN(CCc4ccc5c(c4)NC(=O)CO5)CC3)ccc(Cl)c2n1
1.2 | – | – | – | – | – | – | 0.3 | 0.631 | 15.8 | 0.398 | 0.126 | 0.3 | – | Cc1cc(N2CCN(CCc3ccc4c(c3)NC(=O)CO4)CC2)c2ccc(C)nc2c1
0.3 | – | – | – | – | – | – | 0.4 | 0.398 | 6.31 | 0.2 | 3.16 | 0.4 | – | Cc1cc2c(N3CCN(CCc4ccc5c(c4)NC(=O)CO5)CC3)cccc2[nH]1
1.2 | – | – | – | – | – | – | 0.6 | 0.631 | 2.51 | 0.158 | 0.501 | 0.5 | – | CC1(C)Cc2cccc(N3CCN(CCc4ccc5c(c4)NC(=O)CO5)CC3)c2O1
0.3 | – | – | – | – | – | – | 0.2 | 0.398 | 5.01 | 0.398 | 0.251 | 0 | – | Cc1ccc2c(N3CCN(CCc4ccc5c(c4F)NC(=O)CO5)CC3)cccc2n1
0.4 | – | – | – | – | – | – | 0 | 0.501 | 0.794 | 0.158 | 0.316 | 0 | – | Cc1ccc2c(N3CCN(CCc4ccc5c(c4)NC(=O)CO5)CC3)cc(Cl)cc2n1
0.4 | – | – | – | – | – | – | 0.2 | 0.316 | 0.158 | 12.6 | 0.631 | 0 | – | O=C1COc2ccc(CCN3CCN(c4cccc5nc(-c6ccccc6)ccc45)CC3)cc2N1
0.6 | 1.1 | – | 4 | – | 67 | 2.8 | 0.2 | 0.631 | 2 | 0.316 | 0.398 | 0 | 0.3 | Cc1ncc2c(N3CCN(CCc4ccc5c(c4)NC(=O)CO5)CC3)cccc2n1
